Laboratory results: PubChem BioAssay (NCI)
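Exposure lasted 48 hours, with cells grown in 96-well plates and compounds tested at five concentrations. Abbreviation: GI50, concentration required for 50% inhibition of growth. TGI marks complete inhibition of growth.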

The molecules below were run on SR leukemia (assay: inhibition of tumour cell growth, NCI panel, 48 h).
C=C1C(=O)O[C@H]2[C@H]1CC/C(COC(=O)/C=C\C(=O)NCc1ccc(Cn3c(=O)sn(-c4ccc(C#N)cc4)c3=O)cc1)=C\CC[C@@]1(C)O[C@@H]21 showed a GI50 of 0.292 µM and a TGI of 50 µM. COc1cc(C2c3cc4c(cc3[C@@H](Nc3ccccc3)C3CO[C@@H](OC)[C@H]23)OCO4)cc(OC)c1O (some centres not stated) showed a TGI of 22.6 µM. CCOC(=O)c1c(SC(=O)/C=C/c2ccccc2)n(-c2ccccc2)c(=S)n(-c2ccccc2)c1=O was tested, and the TGI was > 100 µM. In the case of CC(=O)OC[C@]12CC[C@H]3[C@@H](C[C@H]4O[C@]45CC=CC(=O)[C@]35C)[C@]1(O)CC[C@@]2(O)[C@@](C)(O)C1CC(C)=C(C)C(=O)O1 (some centres not stated), the TGI is reported as > 38 µM.

Each molecule was assayed on SW-620 colon (assay: inhibition of tumour cell growth, NCI panel, 48 h).
Work on C=C1C(=O)O[C@H]2[C@H]1CC/C(COC(=O)/C=C\C(=O)NCc1ccc(Cn3c(=O)sn(-c4ccc(C#N)cc4)c3=O)cc1)=C\CC[C@@]1(C)O[C@@H]21 yielded a GI50 of 0.353 µM and a TGI of 1.22 µM. For COc1cc(C2c3cc4c(cc3[C@@H](Nc3ccccc3)C3CO[C@@H](OC)[C@H]23)OCO4)cc(OC)c1O (some centres not stated), the TGI was > 25 µM. CCOC(=O)c1c(SC(=O)/C=C/c2ccccc2)n(-c2ccccc2)c(=S)n(-c2ccccc2)c1=O was tested, and the TGI was > 100 µM.

The molecules below were run on T-47D breast (assay: inhibition of tumour cell growth, NCI panel, 48 h).
C=C1C(=O)O[C@H]2[C@H]1CC/C(COC(=O)/C=C\C(=O)NCc1ccc(Cn3c(=O)sn(-c4ccc(C#N)cc4)c3=O)cc1)=C\CC[C@@]1(C)O[C@@H]21 gave a GI50 of 0.836 µM and a TGI of 2.18 µM. In the case of COc1cc2c3c(n(CCCCl)c(=O)c2cc1OC)-c1ccccc1C3=O, the GI50 is reported as > 100 µM and the TGI is reported as > 100 µM. In the case of COc1cc(C2c3cc4c(cc3[C@@H](Nc3ccccc3)C3CO[C@@H](OC)[C@H]23)OCO4)cc(OC)c1O (some centres not stated), the TGI is reported as > 25 µM. CCOC(=O)c1c(SC(=O)/C=C/c2ccccc2)n(-c2ccccc2)c(=S)n(-c2ccccc2)c1=O was tested, and the TGI was > 100 µM.

Each molecule was assayed on TK-10 renal (assay: inhibition of tumour cell growth, NCI panel, 48 h).
Work on C=C1C(=O)O[C@H]2[C@H]1CC/C(COC(=O)/C=C\C(=O)NCc1ccc(Cn3c(=O)sn(-c4ccc(C#N)cc4)c3=O)cc1)=C\CC[C@@]1(C)O[C@@H]21 yielded a GI50 of 0.888 µM and a TGI of 1.61 µM. With COc1cc2c3c(n(CCCCl)c(=O)c2cc1OC)-c1ccccc1C3=O the GI50 was 19.6 µM and the TGI was 68.6 µM. COc1cc(C2c3cc4c(cc3[C@@H](Nc3ccccc3)C3CO[C@@H](OC)[C@H]23)OCO4)cc(OC)c1O (some centres not stated) was tested, and the TGI was > 25 µM. In the case of CCOC(=O)c1c(SC(=O)/C=C/c2ccccc2)n(-c2ccccc2)c(=S)n(-c2ccccc2)c1=O, the TGI is reported as > 100 µM.

Each molecule was assayed on U251 CNS (assay: inhibition of tumour cell growth, NCI panel, 48 h).
In the case of C=C1C(=O)O[C@H]2[C@H]1CC/C(COC(=O)/C=C\C(=O)NCc1ccc(Cn3c(=O)sn(-c4ccc(C#N)cc4)c3=O)cc1)=C\CC[C@@]1(C)O[C@@H]21, the GI50 is reported as 0.759 µM and the TGI is reported as 1.62 µM. With COc1cc2c3c(n(CCCCl)c(=O)c2cc1OC)-c1ccccc1C3=O the GI50 was 11.9 µM and the TGI was > 100 µM. In the case of COc1cc(C2c3cc4c(cc3[C@@H](Nc3ccccc3)C3CO[C@@H](OC)[C@H]23)OCO4)cc(OC)c1O (some centres not stated), the TGI is reported as > 25 µM. In the case of CCOC(=O)c1c(SC(=O)/C=C/c2ccccc2)n(-c2ccccc2)c(=S)n(-c2ccccc2)c1=O, the TGI is reported as > 100 µM.

What follows are molecules tested on UACC-257 melanoma (assay: inhibition of tumour cell growth, NCI panel, 48 h).
C=C1C(=O)O[C@H]2[C@H]1CC/C(COC(=O)/C=C\C(=O)NCc1ccc(Cn3c(=O)sn(-c4ccc(C#N)cc4)c3=O)cc1)=C\CC[C@@]1(C)O[C@@H]21 gave a GI50 of 0.812 µM and a TGI of 1.66 µM. With COc1cc2c3c(n(CCCCl)c(=O)c2cc1OC)-c1ccccc1C3=O the GI50 was 10.2 µM and the TGI was > 100 µM. COc1cc(C2c3cc4c(cc3[C@@H](Nc3ccccc3)C3CO[C@@H](OC)[C@H]23)OCO4)cc(OC)c1O (some centres not stated) was tested, and the TGI was > 25 µM. For CCOC(=O)c1c(SC(=O)/C=C/c2ccccc2)n(-c2ccccc2)c(=S)n(-c2ccccc2)c1=O, the TGI was > 100 µM. With CC(=O)OC[C@]12CC[C@H]3[C@@H](C[C@H]4O[C@]45CC=CC(=O)[C@]35C)[C@]1(O)CC[C@@]2(O)[C@@](C)(O)C1CC(C)=C(C)C(=O)O1 (some centres not stated) the TGI was > 32.8 µM.

What follows are molecules tested on UACC-62 melanoma (assay: inhibition of tumour cell growth, NCI panel, 48 h).
Molecule C=C1C(=O)O[C@H]2[C@H]1CC/C(COC(=O)/C=C\C(=O)NCc1ccc(Cn3c(=O)sn(-c4ccc(C#N)cc4)c3=O)cc1)=C\CC[C@@]1(C)O[C@@H]21 has a GI50 of 0.722 µM and a TGI of 1.45 µM. COc1cc2c3c(n(CCCCl)c(=O)c2cc1OC)-c1ccccc1C3=O was tested, and the GI50 was 12.4 µM and the TGI was 54.9 µM. In the case of CCOC(=O)c1c(SC(=O)/C=C/c2ccccc2)n(-c2ccccc2)c(=S)n(-c2ccccc2)c1=O, the TGI is reported as > 100 µM.

Each molecule was assayed on UO-31 renal (assay: inhibition of tumour cell growth, NCI panel, 48 h).
Molecule C=C1C(=O)O[C@H]2[C@H]1CC/C(COC(=O)/C=C\C(=O)NCc1ccc(Cn3c(=O)sn(-c4ccc(C#N)cc4)c3=O)cc1)=C\CC[C@@]1(C)O[C@@H]21 has a GI50 of 0.468 µM and a TGI of 1.07 µM. With COc1cc2c3c(n(CCCCl)c(=O)c2cc1OC)-c1ccccc1C3=O the GI50 was > 100 µM and the TGI was > 100 µM. For COc1cc(C2c3cc4c(cc3[C@@H](Nc3ccccc3)C3CO[C@@H](OC)[C@H]23)OCO4)cc(OC)c1O (some centres not stated), the TGI was 8.03 µM. CC(=O)OC[C@]12CC[C@H]3[C@@H](C[C@H]4O[C@]45CC=CC(=O)[C@]35C)[C@]1(O)CC[C@@]2(O)[C@@](C)(O)C1CC(C)=C(C)C(=O)O1 (some centres not stated) was tested, and the TGI was > 25 µM. In the case of COC(=O)c1ccc2c(c1)n(Cc1ccc3ccccc3c1)c[n+]2Cc1ccc2ccccc2c1, the GI50 is reported as 13 µM and the TGI is reported as 63.9 µM.
